Measurements as given in DBAASP.
≈ marks a conversion by molar mass, not a printed value.

Columns and labels:
Assay in all cases: ≥ marks a high value that may be exact or a test limit, other limits are often not marked, values filed in µg/mL are converted to µM
[1] = tested on: Klebsiella pneumoniae ATCC 700603
[2] = tested on: Staphylococcus aureus SH1000
[3] = tested on: Acinetobacter baumannii ATCC 19606
[4] = tested on: Candida albicans ATCC 90028
[5] = tested on: Pseudomonas aeruginosa ATCC 27853
[6] = tested on: Escherichia coli ATCC 25922
[7] = tested on: Cryptococcus neoformans ATCC 208821
[8] = tested on: Staphylococcus aureus ATCC 43300
[9] = tested on: Staphylococcus aureus ATCC 25923
Acinetobacter baumannii = tested on: Acinetobacter baumannii
[10] = tested on: Salmonella enterica subsp. enterica serovar Pullorum ATCC 7913
[11] = tested on: Staphylococcus epidermidis ATCC 12228
Escherichia coli K88 = tested on: Escherichia coli K88
Escherichia coli K99 = tested on: Escherichia coli K99
[12] = tested on: Pseudomonas aeruginosa PAO1
[13] = tested on: Listeria monocytogenes CGMCC 1.1075
[14] = tested on: Bacillus cereus CGMCC 1.932
[15] = tested on: Salmonella typhimurium ATCC 7731
[16] = tested on: Enterococcus faecalis ATCC 29212
Escherichia coli 078 = tested on: Escherichia coli 078
[17] = tested on: Bacillus subtilis CMCC 63501
Escherichia coli UB1005 = tested on: Escherichia coli UB1005
[18] = tested on: Salmonella enterica subsp. enterica serovar Typhimurium ATCC 14028
[19] = tested on: Cryptococcus neoformans ATCC 32264
[20] = tested on: Candida albicans ATCC 10231
Escherichia coli SBS 363 = tested on: Escherichia coli SBS 363
[21] = tested on: Bacillus megaterium ATCC 10778
Candida albicans MDM8 = tested on: Candida albicans MDM8
[22] = tested on: Staphylococcus aureus ATCC 29213
[23] = tested on: Serratia marcescens ATCC 4112
[24] = tested on: Candida tropicalis IOC 4560
Micrococcus luteus A270 = tested on: Micrococcus luteus A270
[25] = tested on: Enterobacter cloacae beta-12
[26] = tested on: Bacillus subtilis ATCC 6633

MIC [2]	MIC [5]	MIC [8]	MIC [9]	MIC (Acinetobacter baumannii)	MIC [10]	MIC [11]	MIC (Escherichia coli K88)	MIC (Escherichia coli K99)	MIC [12]	MIC [13]	MIC [14]	MIC [15]	MIC [16]	MIC (Escherichia coli 078)	MIC [17]	MIC (Escherichia coli UB1005)	MIC [18]	MIC (Escherichia coli SBS 363)	MIC [21]	SMILES	other results
10 µM (≈ 14.8 µg/mL)	> 22 µM	22 µM (≈ 32.5 µg/mL)	–	–	–	–	–	–	–	–	–	–	–	–	–	–	–	–	–	CC(C)C[C@H](NC(=O)[C@H](C)NC(=O)CNC(=O)[C@@H](NC(=O)[C@@H](NC(=O)[C@H](CCCCN)NC(=O)[C@H](CCCCN)NC(=O)[C@H](CC(C)C)NC(=O)[C@H](CC(C)C)NC(=O)[C@H](CCCCN)NC(=O)[C@H](CC(C)C)NC(=O)[C@H](CC(C)C)NC(=O)[C@@H](N)CCCCN)C(C)C)C(C)C)C(=O)NCC(N)=O [KLLKLLKKVVGALG]	MIC [1]: 22 µM (≈ 32.5 µg/mL); MIC [3]: 5 µM (≈ 7.39 µg/mL); MIC [4]: 22 µM (≈ 32.5 µg/mL); MIC [6]: 11 µM (≈ 16.3 µg/mL); MIC [7]: 11 µM (≈ 16.3 µg/mL)
–	4 µM (≈ 6.8 µg/mL)	2 µM (≈ 3.4 µg/mL)	2 µM (≈ 3.4 µg/mL)	1 µM (≈ 1.7 µg/mL)	2 µM (≈ 3.4 µg/mL)	2 µM (≈ 3.4 µg/mL)	2 µM (≈ 3.4 µg/mL)	4 µM (≈ 6.8 µg/mL)	2 µM (≈ 3.4 µg/mL)	2 µM (≈ 3.4 µg/mL)	2 µM (≈ 3.4 µg/mL)	4 µM (≈ 6.8 µg/mL)	4 µM (≈ 6.8 µg/mL)	8 µM (≈ 13.6 µg/mL)	0.5 µM (≈ 0.85 µg/mL)	2 µM (≈ 3.4 µg/mL)	4 µM (≈ 6.8 µg/mL)	–	–	C[C@H](NC(=O)[C@H](Cc1c[nH]c2ccccc12)NC(=O)[C@H](Cc1c[nH]c2ccccc12)NC(=O)[C@H](CCCN=C(N)N)NC(=O)[C@H](CCCN=C(N)N)NC(=O)[C@H](Cc1c[nH]c2ccccc12)NC(=O)[C@H](CCCN=C(N)N)NC(=O)[C@H](CCCN=C(N)N)NC(=O)[C@H](Cc1c[nH]c2ccccc12)NC(=O)[C@H](Cc1c[nH]c2ccccc12)NC(=O)CN)C(N)=O [GWWRRWRRWWA]	–
–	–	–	–	–	–	–	–	–	–	–	–	–	–	–	–	–	–	–	–	NC(=O)CC[C@H](NC(=O)[C@H](Cc1c[nH]c2ccccc12)NC(=O)[C@H](CCCN=C(N)N)NC(=O)[C@H](CCCN=C(N)N)NC(=O)[C@H](Cc1c[nH]c2ccccc12)NC(=O)[C@H](Cc1c[nH]c2ccccc12)NC(=O)[C@H](CCCN=C(N)N)NC(=O)[C@@H](N)Cc1c[nH]c2ccccc12)C(=O)N[C@@H](CCCN=C(N)N)C(N)=O [WRWWRRWQR]	MIC [19]: 25 µM (≈ 37.9 µg/mL); MIC [20]: 50 µM (≈ 75.7 µg/mL)
–	4 µM (≈ 6.97 µg/mL)	2 µM (≈ 3.49 µg/mL)	2 µM (≈ 3.49 µg/mL)	1 µM (≈ 1.74 µg/mL)	2 µM (≈ 3.49 µg/mL)	2 µM (≈ 3.49 µg/mL)	2 µM (≈ 3.49 µg/mL)	4 µM (≈ 6.97 µg/mL)	4 µM (≈ 6.97 µg/mL)	2 µM (≈ 3.49 µg/mL)	8 µM (≈ 13.9 µg/mL)	4 µM (≈ 6.97 µg/mL)	> 32 µM	2 µM (≈ 3.49 µg/mL)	4 µM (≈ 6.97 µg/mL)	2 µM (≈ 3.49 µg/mL)	4 µM (≈ 6.97 µg/mL)	–	–	CC(C)C[C@H](NC(=O)[C@H](CCCN=C(N)N)NC(=O)[C@H](Cc1c[nH]c2ccccc12)NC(=O)[C@H](CCCN=C(N)N)NC(=O)[C@H](Cc1c[nH]c2ccccc12)NC(=O)[C@H](Cc1c[nH]c2ccccc12)NC(=O)[C@H](Cc1c[nH]c2ccccc12)NC(=O)[C@H](CCCN=C(N)N)NC(=O)[C@H](Cc1c[nH]c2ccccc12)NC(=O)[C@H](CCCN=C(N)N)NC(=O)CN)C(N)=O [GRWRWWWRWRL]	–
–	–	–	–	–	–	6.3 µM (≈ 9.49 µg/mL)	–	–	–	–	–	–	–	–	–	–	–	3.1 µM (≈ 4.67 µg/mL)	0.8 µM (≈ 1.2 µg/mL)	CC(C)C[C@H](NC(=O)[C@H](C)NC(=O)CNC(=O)[C@H](CC(C)C)NC(=O)[C@@H](N)Cc1ccccc1)C(=O)N[C@@H](Cc1c[nH]c2ccccc12)C(=O)N[C@@H](CCCCN)C(=O)N[C@H](C(=O)N[C@@H](C)C(=O)N[C@@H](CCCCN)C(=O)N[C@@H](CCCCN)C(=O)N[C@H](C(=O)N[C@@H](Cc1ccccc1)C(N)=O)C(C)C)C(C)C [FLGALWKVAKKVF]	MIC (Candida albicans MDM8): 1.6 µM (≈ 2.41 µg/mL); MIC [22]: 0.8 µM (≈ 1.2 µg/mL); MIC [23]: 0.2 µM (≈ 0.301 µg/mL); MIC [24]: 0.8 µM (≈ 1.2 µg/mL); MIC (Micrococcus luteus A270): 0.8 µM (≈ 1.2 µg/mL); MIC [25]: 6.3 µM (≈ 9.49 µg/mL)
≥ 100 µM	–	–	–	–	–	–	–	–	–	–	–	–	–	–	–	–	–	–	–	CC[C@H](C)[C@H](NC(=O)[C@H](CC(=O)O)NC(=O)[C@H](Cc1ccccc1)NC(=O)[C@H](CC(C)C)NC(=O)CN)C(=O)N[C@@H](CC(C)C)C(=O)N[C@@H](CCCCN)C(=O)N[C@@H](CCCCN)C(=O)N[C@@H](CC(C)C)C(=O)N[C@@H](CC(C)C)C(=O)N[C@@H](CCCCN)C(=O)N[C@@H](CC(C)C)C(=O)N[C@@H](CC(C)C)C(=O)N[C@@H](CCCCN)C(N)=O [GLFDILKKLLKLLK]	–
–	8 µM (≈ 13.2 µg/mL)	2 µM (≈ 3.29 µg/mL)	4 µM (≈ 6.58 µg/mL)	1 µM (≈ 1.64 µg/mL)	8 µM (≈ 13.2 µg/mL)	2 µM (≈ 3.29 µg/mL)	2 µM (≈ 3.29 µg/mL)	2 µM (≈ 3.29 µg/mL)	8 µM (≈ 13.2 µg/mL)	1 µM (≈ 1.64 µg/mL)	16 µM (≈ 26.3 µg/mL)	8 µM (≈ 13.2 µg/mL)	4 µM (≈ 6.58 µg/mL)	2 µM (≈ 3.29 µg/mL)	2 µM (≈ 3.29 µg/mL)	2 µM (≈ 3.29 µg/mL)	4 µM (≈ 6.58 µg/mL)	–	–	C[C@H](NC(=O)[C@H](CCCN=C(N)N)NC(=O)[C@H](Cc1c[nH]c2ccccc12)NC(=O)[C@H](CCCN=C(N)N)NC(=O)[C@H](Cc1c[nH]c2ccccc12)NC(=O)[C@H](Cc1c[nH]c2ccccc12)NC(=O)[C@H](Cc1c[nH]c2ccccc12)NC(=O)[C@H](CCCN=C(N)N)NC(=O)[C@H](Cc1c[nH]c2ccccc12)NC(=O)[C@@H](N)CCCN=C(N)N)C(N)=O [RWRWWWRWRA]	–
–	–	–	–	–	–	> 50 µM	–	–	–	–	–	–	–	–	–	–	–	≥ 50 µM	6.3 µM (≈ 9.2 µg/mL)	CC(C)C[C@H](NC(=O)[C@H](C)NC(=O)CNC(=O)[C@H](CC(C)C)NC(=O)[C@@H](N)CCCCN)C(=O)N[C@@H](Cc1c[nH]c2ccccc12)C(=O)N[C@@H](CC(N)=O)C(=O)N[C@H](C(=O)N[C@@H](C)C(=O)N[C@@H](CCCCN)C(=O)N[C@@H](CO)C(=O)N[C@@H](CCCCN)C(=O)N[C@@H](Cc1ccccc1)C(N)=O)C(C)C [KLGALWNVAKSKF]	MIC (Candida albicans MDM8): 12.5 µM (≈ 18.3 µg/mL); MIC [22]: > 50 µM; MIC [23]: ≥ 50 µM; MIC [24]: 25 µM (≈ 36.5 µg/mL); MIC (Micrococcus luteus A270): 25 µM (≈ 36.5 µg/mL); MIC [25]: ≥ 50 µM
≥ 33 µM	> 19 µM	> 19 µM	–	–	–	–	–	–	–	–	–	–	–	–	–	–	–	–	–	CC(C)C[C@H](NC(=O)CN)C(=O)N[C@@H](CC(C)C)C(=O)N[C@@H](CCCCN)C(=O)N[C@@H](CC(C)C)C(=O)N[C@@H](CC(C)C)C(=O)N[C@@H](CCCCN)C(=O)N[C@@H](CCCCN)C(=O)N[C@@H](CC(C)C)C(=O)N[C@@H](CC(C)C)C(=O)N[C@@H](CCCCN)C(=O)N[C@@H](CC(C)C)C(=O)N[C@@H](CC(C)C)C(=O)N[C@@H](CCCCN)C(N)=O [GLLKLLKKLLKLLK]	MIC [1]: > 19 µM; MIC [3]: 1 µM (≈ 1.62 µg/mL); MIC [4]: 12 µM (≈ 19.4 µg/mL); MIC [6]: > 19 µM; MIC [7]: 1 µM (≈ 1.62 µg/mL)
–	> 50 µM	–	–	–	–	–	–	–	–	–	–	–	–	–	–	–	–	0.8 µM (≈ 1.17 µg/mL)	3.1 µM (≈ 4.54 µg/mL)	CC(C)C[C@H](NC(=O)[C@H](C)NC(=O)CNC(=O)[C@H](CC(C)C)NC(=O)[C@@H](N)Cc1ccccc1)C(=O)N[C@@H](Cc1c[nH]c2ccccc12)C(=O)N[C@@H](CC(N)=O)C(=O)N[C@H](C(=O)N[C@@H](C)C(=O)N[C@@H](CCCCN)C(=O)N[C@@H](CO)C(=O)N[C@@H](CC(C)C)C(=O)N[C@@H](Cc1ccccc1)C(N)=O)C(C)C [FLGALWNVAKSLF]	MIC (Candida albicans MDM8): 3.1 µM (≈ 4.54 µg/mL); MIC [22]: 0.8 µM (≈ 1.17 µg/mL); MIC [23]: 0.4 µM (≈ 0.586 µg/mL); MIC [24]: 3.1 µM (≈ 4.54 µg/mL); MIC [26]: 0.8 µM (≈ 1.17 µg/mL); MIC (Micrococcus luteus A270): 0.8 µM (≈ 1.17 µg/mL); MIC [25]: ≥ 50 µM
